Measurements reported in article PMC3050645 (Journal of the American Chemical Society, 2010).

Target: Chlorite dismutase (Cld) (Dechloromonas aromatica (nom. nud.), UniProt Q47CX0)
Experiment: UV/vis Soret titration, hyperbolic fit
Assay type: binding

Sequence of Chlorite dismutase (Cld) (Q47CX0 35-282): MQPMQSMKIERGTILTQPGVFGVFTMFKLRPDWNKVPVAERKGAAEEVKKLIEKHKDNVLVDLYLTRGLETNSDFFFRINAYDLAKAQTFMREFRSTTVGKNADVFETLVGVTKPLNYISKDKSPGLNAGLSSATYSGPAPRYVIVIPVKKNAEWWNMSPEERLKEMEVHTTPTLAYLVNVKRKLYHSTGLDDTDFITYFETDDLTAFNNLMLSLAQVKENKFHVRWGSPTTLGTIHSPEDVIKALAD

Structure (SMILES)	Kd [µM]
O=NO [NaNO2]	770 ± 30
N#CS [KSCN]	74 ± 2
c1c[nH]cn1 [Imidazole]	7.6 ± 0.2
c1ccncc1 [Pyridine]	553 ± 8
